# Measured values taken from PMC6429183, “Identification of Compounds That Inhibit Estrogen-Related Receptor Alpha Signaling Using High-Throughput Screening Assays” (Molecules, 2019).
# Values joined by “and” are separate entries in the source; they are usually repeats but may differ in a detail not shown here. Equal entries are not always repeated. Structures can show the parent of a compound that is named as a salt. Where two headings read alike, the source gives them in different places.
# Experiments:
# [1] = target: T1, estrogen-related receptor alpha (ERRα) (Homo sapiens, UniProt P11474); experiment: ERR reporter (luciferase) antagonist qHTS assay, ERR-HEK293; settings: for ERR-HEK293 Follow-Up Efficacy: follow-up screen; for ERR-HEK293 Follow-Up Efficacy / ERR-HEK293 Primary Efficacy: relative to XCT790 = −100%; for ERR-HEK293 Primary Efficacy: primary qHTS, DMSO = 0%
# T1 sequence (P11474 1-423): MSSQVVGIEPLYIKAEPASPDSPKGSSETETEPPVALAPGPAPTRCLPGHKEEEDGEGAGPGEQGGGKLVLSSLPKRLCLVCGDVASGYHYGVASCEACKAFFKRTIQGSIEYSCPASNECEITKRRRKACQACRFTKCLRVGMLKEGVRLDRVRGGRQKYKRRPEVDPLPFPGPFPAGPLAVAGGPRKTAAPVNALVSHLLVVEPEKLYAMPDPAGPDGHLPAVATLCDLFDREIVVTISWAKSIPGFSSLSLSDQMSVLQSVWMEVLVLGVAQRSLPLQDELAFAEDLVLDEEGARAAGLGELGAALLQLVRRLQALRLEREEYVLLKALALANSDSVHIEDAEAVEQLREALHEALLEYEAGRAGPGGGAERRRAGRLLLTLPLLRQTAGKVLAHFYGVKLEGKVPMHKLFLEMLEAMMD
# Description: (§3) The ERR reporter HEK293 cells were cultured in high glucose DMEM medium (ThermoFisher Scientific, Inc., Waltham, MA, USA) supplemented with 10% fetal bovine serum (FBS; ThermoFisher Scientific, Inc.), 4 mM of L-glutamine (ThermoFisher Scientific, Inc.), 1 mM of sodium pyruvate (ThermoFisher Scientific, Inc.), 100 U/mL of penicillin and 100 mg/mL of streptomycin (ThermoFisher Scientific, Inc.). PGC/ERR reporter HEK293 cells were cultured in the same medium as the ERR reporter HEK293 cells with an additional 1 μg/mL puromycin (ThermoFisher Scientific, Inc.) as the selection marker for PGC-1α expression.
# (§4) The DMSO-only compound plates at the beginning and end of the compound plate stack were used to correct the data set by applying an in-house pattern correction algorithm [90]. The half maximum inhibition values (IC50) for each compound and maximum response (efficacy) values were obtained by fitting the concentration-response curves of each compound to a four-parameter Hill equation [91]. […] For each reading, the activity outcome of a test compound was first categorized by the average curve rank from the triplicate runs and the reproducibility calls. The final activity outcome of each compound was based on the ERR antagonist readout activity and cell viability counter screen.
# [2] = system: PGC/ERR reporter HEK293 cells; experiment: CellTiter-Fluor cell viability assay multiplexed with PGC/ERR reporter assay; format: cell-based; settings: for EC50: Homo sapiens; for PGC/ERR-HEK293 Follow-Up Viability EC50: follow-up screen; for PGC/ERR-HEK293 Primary Viability EC50: primary qHTS
# Description: (§1) ERR or PGC/ERR reporter HEK293 cells suspended in culture medium without puromycin were dispensed at 2500 cells/5 μL/well in tissue culture–treated 1536-well white assay plates (Greiner Bio-One North America, Monroe, NC, USA) using a Thermo Scientific Multidrop Combi (ThermoFisher Scientific, Inc.). […] After the cells were incubated at 37 °C with 5% CO2 for 6 h, 23 nL of compounds or control, XTC790, was transferred into the assay plates using a Wako Pintool station (Wako Automation, San Diego, CA, USA). The assay plates were incubated at 37 °C for 18 h, followed by the addition of 5 μL ONE-Glo luciferase reagent (Promega, Madison, WI, USA) using a Flying Reagent Dispenser (Aurora Discovery, Carlsbad, CA, USA). After 30 min of incubation at room temperature, the luminescence intensity of the assay plates was quantified using a ViewLux plate reader (PerkinElmer, Shelton, CT, USA). The assays were performed three times for each compound concentration. These ERR and PGC/ERR reporter assays were multiplexed with the CellTiter-Fluor Cell Viability Assay (Promega), a fluorescence-based cell viability assay, to assess compound cytotoxicity.
# The qHTS data were analyzed as described previously. Each titration point was normalized relative to the positive control compound (XCT790 = −100%) and DMSO-only wells (0%) according to the following equation: % Activity = [(Vcompound − VDMSO)/(VDMSO − Vpos)] × 100, where Vcompound denotes the compound well values, Vpos denotes the median value of the positive control wells, and VDMSO denotes the median values of the DMSO-only wells. The DMSO-only compound plates at the beginning and end of the compound plate stack were used to correct the data set by applying an in-house pattern correction algorithm. The half maximum inhibition values (IC50) for each compound and maximum response (efficacy) values were obtained by fitting the concentration-response curves of each compound to a four-parameter Hill equation [91]. Compounds were designated as Class 1–4 according to the type of concentration–response curve observed. For each reading, the activity outcome of a test compound was first categorized by the average curve rank from the triplicate runs and the reproducibility calls. The final activity outcome of each compound was based on the ERR antagonist readout activity and cell viability counter screen.
# [3] = target: T2, ERRα with PGC-1α (PGC/ERR pathway) (Homo sapiens, UniProt P11474); experiment: PGC/ERR reporter (luciferase) qHTS assay, PGC/ERR-HEK293; settings: for PGC/ERR-HEK293 Follow-Up Efficacy / PGC/ERR-HEK293 Primary Efficacy: negative = antagonism, positive = agonism
# T2 sequence (P11474 1-423): T1 sequence (P11474 1-423)
# Description: as §3, §4
# IDH3α = experiment: qRT-PCR mRNA expression of ERR downstream gene IDH3α; format: cell-based; settings: ERR reporter cells, vs GAPDH, DMSO = 0%
# Description: (§2) Total RNA was isolated from treated ERR reporter cells using an RNeasy Mini Kit (Qiagen, Germantown, MD, USA), homogenized using a QIAshredder (Qiagen), and reverse transcribed with a High-Capacity RNA-to-cDNA™ Kit (ThermoFisher Scientific, Inc.) following the manufacturers’ instructions. Expression of ERRα, COX8α, IDH3α, PPARα, COX4I1, and cytochrome c genes was normalized against GAPDH. All primers were purchased from ThermoFisher Scientific, Inc. Real-time PCR assays were performed in 384-well plates on a QuantStudio 5 (Applied Biosystems, Foster City, CA, USA) with TaqMan™ Gene Expression Master Mix (ThermoFisher Scientific, Inc.). Induction values were calculated using the equation: Fold = 2^ΔΔCt, where ΔCt represents the differences in cycle threshold numbers between each of the target genes and GAPDH, and ΔΔCt represents the relative change in these differences between control and treatment groups. Experimental data are presented as a mean of triplicate determinations ± SD. Statistical comparisons were made by t-test, while the statistical significance was set at p values of <0.05 (light blue), <0.01 (medium blue), and <0.001 (dark blue).
# cytochrome c = experiment: qRT-PCR mRNA expression of ERR downstream gene cytochrome c; format: cell-based; settings: ERR reporter cells, vs GAPDH, DMSO = 0%
# Description: as §2
# COX8α = experiment: qRT-PCR mRNA expression of ERR downstream gene COX8α; format: cell-based; settings: ERR reporter cells, vs GAPDH, DMSO = 0%
# Description: as §2
# [4] = system: ERR reporter HEK293 cells; experiment: CellTiter-Fluor cell viability assay multiplexed with ERR reporter assay; format: cell-based; settings: for EC50: Homo sapiens, HEK293
# Description: as §1
# The qHTS data were analyzed as described previously. […] The DMSO-only compound plates at the beginning and end of the compound plate stack were used to correct the data set by applying an in-house pattern correction algorithm. The half maximum inhibition values (IC50) for each compound and maximum response (efficacy) values were obtained by fitting the concentration-response curves of each compound to a four-parameter Hill equation [91]. […] For each reading, the activity outcome of a test compound was first categorized by the average curve rank from the triplicate runs and the reproducibility calls. The final activity outcome of each compound was based on the ERR antagonist readout activity and cell viability counter screen.
# [5] = target: T1, estrogen-related receptor alpha (ERRα)
# Description: as §3, §4
# [6] = target: T2, ERRα with PGC-1α (PGC/ERR pathway)
# Description: as §3, §4
# [7] = ERR-HEK293 Follow-Up EC50, follow-up (confirmation) screen, mean ± SD, triplicate
# [8] = ERR-HEK293 Primary EC50, primary qHTS, 18 h, 15 concentrations, mean ± SD, triplicate
# [9] = PGC/ERR-HEK293 Follow-Up EC50, follow-up screen, mean ± SD, triplicate
# [10] = PGC/ERR-HEK293 Primary EC50, primary qHTS, 18 h, mean ± SD, triplicate
# [11] = follow-up screen, viability, read-out: ERR-HEK293 Follow-Up Viability EC50 (converted)
# [12] = primary qHTS, viability counter screen
Compound,"EC50 [1, 7]","EC50 [1, 8]",ERR-HEK293 Follow-Up Efficacy [1],ERR-HEK293 Primary Efficacy [1],"EC50 [3, 9]","EC50 [3, 10]",PGC/ERR-HEK293 Follow-Up Efficacy ([3]; follow-up screen),PGC/ERR-HEK293 Primary Efficacy ([3]; primary qHTS),PGC/ERR-HEK293 Follow-Up Viability EC50 [2],PGC/ERR-HEK293 Primary Viability EC50 [2],"ERR-HEK293 Follow-Up Viability EC50 ([4]; follow-up screen, viability)","ERR-HEK293 Primary Viability EC50 [4, 12]",other results
COc1ccc2cc3[n+](cc2c1OC)CCc1cc2c(cc1-3)OCO2 [Berberine],3290 ± 2270 nM,3160 ± 713 nM,−92.0 ± 16.0%,−88.4 ± 7.45%,8930 ± 4010 nM,6130 ± 1710 nM,−87.4 ± 20.8%,−77.3 ± 14.6%,,,,,"activity in the ERR assay ([1]; in words): potent antagonists; EC50 ([2]; HEK293, follow-up screen, read-out: PGC/ERR-HEK293 Follow-Up Viability EC50 (converted)): 17300 nM; EC50 ([2]; HEK293, primary qHTS, read-out: PGC/ERR-HEK293 Primary Viability EC50 (converted)): 17300 nM; activity in the ERR/PGC assay ([3]; in words): antagonism; Percent inhibition of mRNA gene expression, IDH3α (IDH3α; 20 µM): 15.1 ± 2.97%; Percent inhibition of mRNA gene expression, Cytochrome C (cytochrome c; 20 µM): 46.2 ± 2.61%; Percent inhibition of mRNA gene expression, COX8α (COX8α; 20 µM): 5.15 ± 0.17%; EC50 [4, 11]: 12700 nM; EC50 ([4]; primary qHTS, viability counter screen, read-out: ERR-HEK293 Primary Viability EC50 (converted)): 12800 nM"
Nc1ncn([C@H]2C[C@H](O)[C@@H](CO)O2)c(=O)n1 [Decitabine],,,,,,,,,,,,,"Percent inhibition of mRNA gene expression, IDH3α (IDH3α; 2 µM): 5.79 ± 45.6%"
CC[C@@]1(O)C(=O)OCc2c1cc1n(c2=O)Cc2cc3c(CN(C)C)c(O)ccc3nc2-1 [Topotecan hydrochloride],722 ± 285 nM,1240 ± 83.7 nM,−140 ± 24.4%,−127 ± 11.8%,5260 nM,14100 ± 1150 nM,−78.8 ± 7.20%,−69.1 ± 5.82%,Inactive,Inactive,Inactive,Inactive,ERR-HEK293 Primary Efficacy ([1]; listed as topotecan): −127%
Nc1ccc2cc3ccc(N)cc3nc2c1 [Proflavin hemisulfate],,,,,,,,,,,,,"Percent inhibition of mRNA gene expression, IDH3α (IDH3α; 3 µM): 24.9 ± 20.6%; Percent inhibition of mRNA gene expression, Cytochrome C (cytochrome c; 3 µM): 20.6 ± 8.69%; Percent inhibition of mRNA gene expression, COX8α (COX8α; 3 µM): 34.8 ± 26.7%"
Cc1nn(C)c(Oc2ccccc2)c1C=NOCc1ccc(C(=O)OC(C)(C)C)cc1 [Fenpyroximate],6.99 ± 3.28 nM,4.52 ± 0.577 nM,−89.6 ± 6.08%,−67.1 ± 9.31%,18.6 ± 21 nM,8.75 ± 0.572 nM,−56.2 ± 10.5%,−36.8% and −36.8 ± 2.17%,,,,,"EC50 ([1]; potency, ERR antagonist assay, primary screen): 4.5 nM; EC50 ([3]; potency, ERR/PGC antagonist assay, primary screen): 8.8 nM; Percent inhibition of mRNA gene expression, Cytochrome C (cytochrome c; 7.5 nM): 5.28 ± 4.56%"
CC[C@@]1(O)C(=O)OCc2c1cc1n(c2=O)Cc2c-1nc1ccccc1c2/C=N/OC(C)(C)C [Gimatecan],,,−145 ± 16.0%,−117 ± 14.5%,,,−130 ± 20.6%,−115 ± 2.20%,Inactive,Inactive,Inactive,Inactive,EC50 ([1]; ERR-HEK293 Follow-Up EC50): 44.2 nM; EC50 ([1]; ERR-HEK293 Primary EC50): 49.7 nM; EC50 ([3]; PGC/ERR-HEK293 Follow-Up EC50): 3340 nM; EC50 ([3]; PGC/ERR-HEK293 Primary EC50): 2530 nM
CON=C(C(=O)OC)c1ccccc1CON=C(C)c1cccc(C(F)(F)F)c1 [Trifloxystrobin],,,,,,,,,,,,,"Percent inhibition of mRNA gene expression, IDH3α (IDH3α; 0.5 µM): 10.4 ± 0.21%; Percent inhibition of mRNA gene expression, COX8α (COX8α; 0.5 µM): 38.4 ± 17.2%"
CO/N=C(/C1=NOCCO1)c1ccccc1Oc1ncnc(Oc2ccccc2Cl)c1F [Fluoxastrobin],,,,,,,,,,,,,"Percent inhibition of mRNA gene expression, IDH3α (IDH3α; 7 µM): 13.3 ± 2.44%; Percent inhibition of mRNA gene expression, Cytochrome C (cytochrome c; 7 µM): 25.5 ± 7.81%"
O=c1[nH]c(=O)n([C@H]2C[C@H](O)[C@@H](CO)O2)cc1C(F)(F)F [Trifluridine],1750 ± 314 nM,875 ± 59.3 nM,−67.7 ± 6.20%,−51.8 ± 5.77%,,,,,Inactive Inactive,Inactive Inactive,Inactive,Inactive,"PGC/ERR-HEK293 Follow-Up EC50 ([3]; follow-up screen, mean ± SD, triplicate): Inactive Inactive; PGC/ERR-HEK293 Primary EC50 ([3]; primary qHTS, 18 h, mean ± SD, triplicate): Inactive Inactive; Percent inhibition of mRNA gene expression, COX8α (COX8α; 1 µM): 43.2 ± 21.8%"
CO/C=C(/C(=O)OC)c1ccccc1COc1cccc(C(F)(F)F)n1 [Picoxystrobin],3420 ± 393 nM,807 ± 279 nM,,,4190 ± 2970 nM,2790 ± 2400 nM,,,Inactive,Inactive,,Inactive,"ERR-HEK293 Follow-Up Efficacy [5]: −86.7 ± 15.8%; ERR-HEK293 Primary Efficacy [5]: −83.9 ± 10.6%; EC50 [4, 11]: 32100 nM; PGC/ERR-HEK293 Follow-Up Efficacy [6]: −43.6 ± 14.2%; PGC/ERR-HEK293 Primary Efficacy [6]: −44.2 ± 4.37%"
